In PMC10714400, “Antimicrobial Peptide–Peptoid Hybrids with and without Membrane Disruption” (ACS Infectious Diseases, 2023):
Values after ≈ are worked out from the molar mass of the structure shown. Where a SMILES comes first, the peptide text is derived from it. [ ]: non-standard residue; d: D form. Nleu = CC(C)CNCC(=O)O; Nlys = NCCCCNCC(=O)O

What was measured:
[1] = system: P. aeruginosa PAO1
Procedure, shortened: (§1)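 Using MTT as a visual viability dye, MICs were scored as the lowest concentration with no visible growth. Prior to staining, ~5 × 10^5 CFU per well grew in MH medium for ca. 18 h at 37 °C under static conditions.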

[2] = system: PA14 4.18 (pmrB); details: […] MH at pH 8.5
Procedure, shortened: as §1

[3] = system: PA14 2P4 (pmrB); details: CSV; […] MH at pH 8.5
Procedure, shortened: as §1

[4] = system: K. pneumoniae NCTC418
Procedure, shortened: (§2)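 MTT added (20–30 min, room temperature); MIC read by eye as lowest concentration inhibiting visible growth (yellow). Polymyxin B positive control from 16 μg/mL.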

[5] = system: A. baumannii ATCC19606
Procedure, shortened: as §2

[6] = system: E. coli W3110
Procedure, shortened: as §1

[7] = system: PA14 4.13 (phoQ); details: CSV; […] MH at pH 8.5
Procedure, shortened: as §1

[8] = system: S. aureus COL (MRSA)
Procedure, shortened: as §1

[9] = system: HEK293 cells; assay: Cell viability assay by Alamar blue; details: read-out: Toxicity on HEK293 cells; CSV
Experimental: The data are represented as the mean value ± SD, n = 3. […] (c) Vesicle leakage assay for a selection of compounds. Lipid vesicles made of EYPG or EYPC were suspended in a buffer (10 mM TRIS, 107 mM NaCl, pH 7.4). After 45 s, the indicated compound was added to reach the desired concentration. After 240 s, 30 μL of 1.2% TritonX-100 was added for full fluorescein release. […] See Supporting Information for the full curves, all of the data, and procedures.
HEK293 cells were cultured and maintained in DMEM high glucose (Dulbecco’s modified Eagle medium, Sigma Aldrich) medium supplemented with 10% FBS (Sigma Aldrich) and 1% penicillin/streptomycin. A549 cells were cultured and maintained in RPMI-1640 medium (Sigma Aldrich), supplemented with 10% FBS (Sigma Aldrich) and 1% penicillin/streptomycin. The cells were handled and subcultured according to the manufacturer instructions. Cells were incubated in a humidified incubator at 37 °C in the presence of 5% CO2.
Assays on HEK293, A549 cells were performed as described earlier.[74] […]

[10] = system: S. aureus Newman; details: Newman, 4 h, pH 8.5
Experimental: (§3) Antimicrobial activity was assayed for all the peptide–peptoids against P. aeruginosa PAO1, K. pneumoniae NCTC418, E. coli W3110, A. baumannii ATCC 19606, methicillin-resistant S. aureus COL (MRSA), and for selected peptides on P. aeruginosa PA14 and the polymyxin-B-resistant derivatives PA14 4.13, PA14 4.18, PA14 2P4, as well as the clinical isolates ZEM-1A and ZEM9A, K. pneumoniae OXA-48, S. aureus Newman, Enterobacter cloacae, Stenotrophomonas maltophilia, Burkholderia cenocepacia, and Staphylococus epidermidis. To determine the Minimal Inhibitory Concentration (MIC), the Broth Microdilution method was used.[72] A colony of bacteria was picked and grown in LB medium overnight at 37 °C.
(§4) To each well was finally added 4 μL of the diluted bacterial suspension (see above), corresponding to approximately 5 × 10^5 CFU. For each test, two columns of the plate were kept for sterility control (medium only), growth control (medium with bacterial inoculum, no compound). The positive control, Polymyxin B (starting with a concentration of 16 μg/mL) in MH medium with bacterial inocula, was introduced in the two lines of the plate. […] Next, 15 μL of 3-(4,5-dimethylthiazol-2-yl)-2,5-diphenyltetrazolium bromide (MTT)[73] (1 mg/mL in sterilized MilliQ deionized water) were added to each well, and the plates were incubated for 20–30 min at room temperature. The minimal inhibitory concentration (MIC) was defined as the lowest concentration of the compound that inhibits the visible growth of the tested bacteria (yellow) with the unaided eye.

[11] = system: P. aeruginosa PA14; details: PA14, pH 8.5
Experimental: as §3, §4

[12] = Circular dichroism, α-helical content; type: physicochemical; details: 0.1 mg/mL; for CD %α with 5 mM DPC: 10 mM phosphate buffer pH 7.4, 5 mM DPC; for CD %α with 20% TFE: 10 mM phosphate buffer pH 7.4, 20% TFE
[13] = system: human red blood cells (hRBC); assay: Minimum hemolytic concentration (MHC); type: cell-based
From the text: We also measured minimal hemolysis concentrations (MHC) on human red blood cells by serial 2-fold dilution as an indication of toxicity against eukaryotic cells (Table 1).

## CC(C)C[C@H](NC(=O)CN(CCCCN)C(=O)[C@H](CC(C)C)NC(=O)[C@H](CC(C)C)NC(=O)[C@H](CCCCN)NC(=O)[C@H](CC(C)C)NC(=O)[C@H](CC(C)C)NC(=O)[C@H](CCCCN)NC(=O)CNCCCCN)C(=O)N[C@@H](CC(C)C)C(=O)N(CC(N)=O)CC(C)C [EB2, kKLLKLLkLLl] (H-[Nlys]KLLKLL[Nlys]LL[Nleu]-NH2)
[1]; PAO1, 4 h, pH 7.4
  MIC P. aeruginosa PAO1, full MH at pH 7.4: 32 ug/mL
[1]; PAO1, 4 h, pH 8.5
  MIC P. aeruginosa PAO1, full MH at pH 8.5: 16 ug/mL
[1]; Table S2, […] MH, pH 7.4
  MIC P. aeruginosa PAO1 […] 7.4: 16 µg/mL (≈ 12.1 µM)
[1]; Table S2, […] MH, pH 8.5
  MIC P. aeruginosa PAO1 […] 8.5: 8 µg/mL (≈ 6.05 µM)
[1]; Table S2, full MH, pH 7.4
  MIC P. aeruginosa PAO1 Full MH 7.4: 32 µg/mL (≈ 24.2 µM)
[1]; Table S2, full MH, pH 8.5
  MIC P. aeruginosa PAO1 Full MH 8.5: 16 µg/mL (≈ 12.1 µM)
[2]; CSV
  MIC P. aeruginosa PA14 4.18, […] MH at pH 8.5: 6 ug/mL
[2]; Table S3
  MIC P. aeruginosa PA14 4.18: 4 to 8 µg/mL
[3]
  MIC P. aeruginosa PA14 2P4, […] MH at pH 8.5: 8 ug/mL
[4]; NCTC418, 4 h, pH 7.4
  MIC K. pneumoniae NCTC418, full MH at pH 7.4: >32 ug/mL
[4]; NCTC418, 4 h, pH 8.5
  MIC K. pneumoniae NCTC418, full MH at pH 8.5: >32 ug/mL
[4]; Table S2, […] MH, pH 7.4
  MIC K. pneumoniae NCTC418 […] 7.4: > 32 µg/mL
[4]; Table S2, […] MH, pH 8.5
  MIC K. pneumoniae NCTC418 […] 8.5: > 32 µg/mL
[4]; Table S2, full MH, pH 7.4
  MIC K. pneumoniae NCTC418 Full MH 7.4: > 32 µg/mL
[4]; Table S2, full MH, pH 8.5
  MIC K. pneumoniae NCTC418 Full MH 8.5: > 32 µg/mL
[5]; ATCC19606, 4 h, pH 7.4
  MIC A. baumannii ATCC19606, full MH at pH 7.4: >32 ug/mL
[5]; Table S2, […] MH, pH 7.4
  MIC A. baumannii ATCC19606 […] 7.4: 16 µg/mL (≈ 12.1 µM)
[5]; Table S2, […] MH, pH 8.5
  MIC A. baumannii ATCC19606 […] 8.5: 8 µg/mL (≈ 6.05 µM)
[5]; Table S2, full MH, pH 7.4
  MIC A. baumannii ATCC19606 Full MH 7.4: > 32 µg/mL
[5]; Table S2, full MH, pH 8.5
  MIC A. baumannii ATCC19606 Full MH 8.5: 32 µg/mL (≈ 24.2 µM)
[6]; CSV, […] MH at pH 7.4
  MIC E. coli W3110, […] MH at pH 7.4: 4 ug/mL
[6]; CSV, full MH at pH 7.4
  MIC E. coli W3110, full MH at pH 7.4: 32 ug/mL
[6]; CSV, full MH at pH 8.5
  MIC E. coli W3110, full MH at pH 8.5: 32 ug/mL
[6]; Table S2, […] MH, pH 7.4
  MIC E. coli W3110 […] 7.4: 4 µg/mL (≈ 3.03 µM)
[6]; Table S2, […] MH, pH 8.5
  MIC E. coli W3110 […] 8.5: 2 µg/mL (≈ 1.51 µM)
[6]; Table S2, full MH, pH 7.4
  MIC E. coli W3110 Full MH 7.4: 32 µg/mL (≈ 24.2 µM)
[6]; Table S2, full MH, pH 8.5
  MIC E. coli W3110 Full MH 8.5: 32 µg/mL (≈ 24.2 µM)
[7]
  MIC P. aeruginosa PA14 4.13, […] MH at pH 8.5: 4 ug/mL
[8]; COL, 4 h, pH 7.4
  MIC S. aureus COL (MRSA), full MH at pH 7.4: >32 ug/mL
[8]; COL, 4 h, pH 8.5
  MIC S. aureus COL (MRSA), full MH at pH 8.5: 32 ug/mL
[8]; Table S2, […] MH, pH 7.4
  MIC S. aureus COL (MRSA) […] 7.4: 32 µg/mL (≈ 24.2 µM)
[8]; Table S2, […] MH, pH 8.5
  MIC S. aureus COL (MRSA) […] 8.5: 2 µg/mL (≈ 1.51 µM)
[8]; Table S2, full MH, pH 7.4
  MIC S. aureus COL (MRSA) Full MH 7.4: > 32 µg/mL
[8]; Table S2, full MH, pH 8.5
  MIC S. aureus COL (MRSA) Full MH 8.5: 32 µg/mL (≈ 24.2 µM)
[9]
  IC50: > 200 µM
[10]
  MIC S. aureus Newman: 2 to 4 µg/mL
[11]
  MIC P. aeruginosa PA14: 2 to 4 µg/mL
[12]; DichroWeb, Contin-LL
  CD %α with 5 mM DPC: 11%
  CD %α with 20% TFE: 15%
[12]; Table S2
  CD %α with 5 mM DPC: 11%
  CD %α with 20% TFE: 15%
[13]
  Hemolysis: none of them showed any measurable hemolysis
  MHC: >2000 µg/mL
